Series [1] deals with two spotted mites. Briefly: Two-spotted mite mortality on red kidney bean plants (Example 9). The format is in vivo. The note with it: Tetranychus urticae, 48 h, read-out: % Mortality (2 days). As to the method: Test units consisted of plant pots containing two red kidney bean plants in the two-leaf stage per pot. The plants were infested with two spotted mites and sprayed to run-off with dispersions of N-[2-chloro-5-(trifluoromethyl)phenyl]-N-[2,4-dinitro-6-(trifluoromethyl)phenyl]-3-nitro-2-pyridinesulfenamide at the indicated concentrations. Dispersions were made by dissolving weighed quantities of the active ingredients in 10 ml of acetone and then diluting to volume with water containing 1:3000 of a surfactant, DuPonol® (a tradename of E. I. du Pont de Nemours & Co. for sodium alcohol sulfonate). Mortality was evaluated two days after spraying.

Series [2] deals with Puccinia graminis var. tritici. The class given is in vivo. The note with it: 20 ppm, wheat seedlings, 24 hours humidity chamber at 20° C. then 7 days.
The subject of series [3] is Erysiphe cichoracearum. Briefly: Control of cucumber powdery mildew in a photostability test (Example 18). The class given is in vivo. The note with it: 20 ppm, cucumber seedlings, 3500 foot candles xenon arc 16 hours, incubated 7 days. As to the method: (§1) Compounds of this invention are dissolved in acetone in an amount equal to 6% of the final volume and then suspended at a concentration of 20 ppm in purified water containing 25 ppm of the surfactant Alkanol® XC (sodium alkyl naphthalene sulfonate). This suspension is sprayed to the point of run-off in cucumber seedlings. When the foliage is dry, the plants are exposed to 3500 foot candles of light from a xenon arc source for a period of 16 hours. This light source approximates the spectrum of natural sunlight, and is used to assess photostability of the compounds of this invention on plant foliage. The following day, the plants are inoculated with a spore suspension of the fungus Erysiphe cichoracearum and incubated in a growth room for 7 days. Disease ratings are then made.

Series [4] concerns Erysiphe cichoracearum. Put plainly: Control of cucumber powdery mildew in a preventive test (Example 16). The following applies: 20 ppm, cucumber seedlings, incubated 7 days. The format is in vivo. As to the method:
(§2) Compounds of this invention are dissolved in acetone in an amount equal to 6% of the final volume and then suspended at a concentration of 20 ppm in purified water containing 25 ppm of the surfactant Alkanol® XC (sodium alkyl naphthalane sulfonate). This suspension is sprayed to the point of run-off on cucumber seedlings. The following day, the plants are inoculated with a spore suspension of the fungus Erysiphe cichoracearum and incubated in a growth room for 7 days. Disease ratings are then made.

The subject of series [5] is Puccinia graminis var. tritici. The class given is in vivo. The following applies: 20 ppm, wheat seedlings, 1/2 inch simulated rainfall, 24 hours humidity chamber then 7 days.
For series [6], the system named is Rhizoctonia solani. Put plainly: Rhizoctonia solani control on cotton, simulated in-the-row soil application (Example 12). The note with it: 15 kg/ha, 8 days. The format is in vivo. The text has this:
Rhizoctonia solani-infested soil was placed in a 900 cc cup. Compounds of this invention were mixed at a rate of 15 kg/ha in a section 2" wide×2" deep×4" long to simulate an in-the-row application. Five cotton seeds were planted in the treated soil. After 8 days, the cotton plants were removed and rated for disease control.

Series [7] relates to Venturia inaequalis. Briefly: Control of apple scab in a photostability test (Example 15). The format is in vivo. The note with it: 20 ppm, apple seedlings, 3500 foot candles xenon arc 16 hours, incubated 10-12 days. As to the method:
as §1, with “on apple” for “in cucumber”, “Venturia inaequalis” for “Erysiphe cichoracearum”, “10-12” for “7”, “made. As shown in the following table, most of the compounds of this invention provided good disease control as the treated plants had fewer apple scab lesions in contrast to untreated plants which were covered with scab lesions. Phytotoxicity in the form of foliar burn was observed on some of the plants in association with disease control.” for “made.”

Series [8] concerns Erysiphe cichoracearum. Put plainly: Control of cucumber powdery mildew in a residual wash-off test (Example 17). The class given is in vivo. The following applies: 20 ppm, cucumber seedlings, 1/2 inch simulated rainfall, incubated 7 days. As to the method: (§3) Compounds of this invention are dissolved in acetone in an amount equal to 6% of the final volume and then suspended at a concentration of 20 ppm in purified water containing 25 ppm of the surfactant Alkanol® XC (sodium alkyl naphthalene sulfonate). This suspension is sprayed to the point of run-off on cucumber seedlings. The following day, 1/2 inch of simulated rainfall is applied to the foliage of the plants. When the foliage is dry, the plants are inoculated with a spore suspension of the fungus Erysiphe cichoracearum and incubated in a growth room for 7 days. Disease ratings are then made.

Series [9] concerns Venturia inaequalis. Briefly: Control of apple scab in a residual wash-off test (Example 14). The format is in vivo. The following applies: 20 ppm, apple seedlings, 1/2 inch simulated rainfall, incubated 10-12 days. The procedure:
as §3, with “apple” for “cucumber”, “Venturia inaequalis” for “Erysiphe cichoracearum”, “10-12” for “7”, “made. […] Phytotoxicity in the form of foliar burn was observed on some of the plants in association with disease control.” for “made.”

Series [10] concerns Puccinia graminis var. tritici. The format is in vivo. The note with it: 20 ppm, wheat seedlings, 3500 foot candles xenon arc 16 hours, 24 hours humidity chamber then 7 days.
In series [11] the test system is house fly adults. Put plainly: House fly adult mortality (Example 10). The format is in vivo, Musca domestica (house fly). The note with it: concentration .01 (unit not given), acetone dispersion, 1 day, 25°±2° C., 50% RH. The procedure: Twenty-five house fly adults are secured in screened stainless steel ring cages and treated with acetone dispersions of N-[2-chloro-5-(trifluoromethyl)-phenyl]-N-[2,4-dinitro-6-(trifluoromethyl)phenyl]-3-nitro-2-pyridinesulfenamide at the indicated concentrations. The stock dispersion is prepared by dissolving appropriately weighed quantities of active ingredient in predetermined quantities of acetone. Further diluting with acetone yields the desired concentrations. After treating, the units are kept in a room maintained at 25°±2° C., 50% RH. Results are recorded at the end of 1 day.

In series [12] the test system is Phytophthora infestans. The following applies: 5 ppm, tomato seedlings, incubated 4 days.
Series [13] relates to Venturia inaequalis. Put plainly: Control of apple scab in a preventive test (Example 13). The class given is in vivo. The following applies: 20 ppm, apple seedlings, incubated 10-12 days. The procedure:
as §2, with “naphthalene” for “naphthalane”, “apple” for “cucumber”, “Venturia inaequalis” for “Erysiphe cichoracearum”, “10-12” for “7”, “made. […] Phytotoxicity in the form of foliar burn was observed on some of the plants in association with disease control.” for “made.”

In series [14] the test system is Helminthosporium oryzae. Put plainly: Control of rice Helminthosporium in a seed treatment test (Example 11). The following applies: 1.3 g per kilogram of seed, 18 days, rating based on percent germination.
Protocol: Rice seed infected with Helminthosporium oryzae are treated with compounds of this invention at a rate of 1.3 g per kilogram of seed. This is accomplished by soaking infected seed for 1 minute in a suspension of the indicated compound dissolved in a solution containing 4% glycerine, 4% water, 0.02% Tween®20*, and 92% acetone. Treated seeds are placed on moist blotters and enclosed in plastic bags for 18 days at which time disease ratings are made based on percent germination.
*Tween®20 is a trademark of ICI Americas, Inc. and consists of polyoxytheylene (20) sorbitan monolaurate.

`O=[N+]([O-])c1cc([N+](=O)[O-])c(N(Sc2ncccc2[N+](=O)[O-])c2cc(C(F)(F)F)ccc2Cl)c(C(F)(F)F)c1` [N-[2-chloro-5-(trifluoromethyl)phenyl]-N-[2,4-dinitro-6-(trifluoromethyl)phenyl]-3-nitro-2-pyridinesulfenamide]: in [1], the mortality at 0.00025 % was 100%. Besides, the “% Control Wheat Rust in a Preventive Test” value in series [2] worked out at 80%. Further, in [3], the “% Control Cucumber Powdery Mildew in a Photostability Test” value came to 94%. Besides, in series [4], the “% Control Cucumber Powdery Mildew in a Preventive Test” value was 100%. Moreover, in series [5], the “% Control Wheat Rust in a Residual Wash-off Test” value is given as 98%. Further, in series [6], the “% Rhizoctonia solani control” value is recorded as 100%. Besides, the “% Control Apple Scab in a Photo-stability test” value in series [7] was determined as 70%. The “% Control Cucumber Powdery Mildew in a Residual Wash-Off Test” value in series [8] is listed as 90%. In series [9], the “% Control of Apple Scab in a Residual Wash-Off Test” value was 100%. For the same compound, the “% Control Wheat Rust in a Photostability Test” value in [10] amounted to 95%. Further, the “% Mortality” value in series [11] was found to be 90%. In addition, in [12], the “% Control Tomato Late Blight in a Preventive Test” value is reported as 70%. Also, in series [13], the “% Control Apple Scab in a Preventive Test” value was determined as 100%. For the same compound, the “% Control of rice Helminthosporium in a seed treatment test” value in series [14] came out at 90%.
With `O=[N+]([O-])c1cc([N+](=O)[O-])c(N(Sc2nc3ccccc3s2)c2cc(C(F)(F)F)ccc2Cl)c(C(F)(F)F)c1` [N-[2-chloro-5-(trifluoromethyl)phenyl]-N-[2,4-dinitro-6-(trifluoromethyl)phenyl]-2-benzothiazolesulfenamide], in series [2], the “% Control Wheat Rust in a Preventive Test” value stood at 97%. Besides, the “% Control Cucumber Powdery Mildew in a Photostability Test” value in series [3] amounted to 15%. Moreover, the “% Control Cucumber Powdery Mildew in a Preventive Test” value in series [4] is 60%. For the same compound, the “% Control Wheat Rust in a Residual Wash-off Test” value in series [5] was 85%. For the same compound, the “% Rhizoctonia solani control” value in [6] was 50%. The “% Control Apple Scab in a Photo-stability test” value in series [7] is recorded as 15%. Further, the “% Control Cucumber Powdery Mildew in a Residual Wash-Off Test” value in [8] is recorded as 68%. Further, in series [9], the “% Control of Apple Scab in a Residual Wash-Off Test” value was 43%. In addition, the “% Control Wheat Rust in a Photostability Test” value in [10] worked out at 83%. Moreover, the “% Control Tomato Late Blight in a Preventive Test” value in series [12] is listed as 0%. The “% Control Apple Scab in a Preventive Test” value in series [13] is listed as 43%. Moreover, the “% Control of rice Helminthosporium in a seed treatment test” value in series [14] worked out at 0%.

In general, mortality refers to the percentage killed.
